Experimental findings from PMC9358475 (The Journal of Biological Chemistry, 2022) are described below.

Broadly, the IC50 is the concentration needed to halve the response being measured.

Assay [1] has as its system ERK1/2. As to the kind of experiment: ERK-KTR live-cell ERK activity reporter in HCT-116, […] h. It counts as cell-based.
Assay [2] deals with ERK1/2. Kind of assay: ERK-KTR live-cell ERK activity reporter in SH-SY5Y, […] h. It counts as cell-based.

In turn, `CC(C)Nc1cc(-c2c[nH]c(C(=O)N[C@H](CO)c3cccc(Cl)c3)c2)c(Cl)cn1` [Ulix, ulixertinib] came in with an IC50 with ERK1/2 [1] of 32 nM. Turning to `O=C(Nc1ccc2[nH]nc(-c3ccncc3)c2c1)[C@@H]1CCN(CC(=O)N2CCN(c3ccc(-c4ncccn4)cc3)CC2)C1` [SCH, SCH772984], the IC50 in the assay on ERK1/2 [2] came out at 75 nM.
